The record followed here is US9125413B1, “Nematicide composition comprising CED-4 peptide” (California State University Fresno, priority 2014, dated 2015).

The subject of this data set is C. elegans nematodes at the L1 stage. The experiment in a line: Nematicide efficacy of CED-4 peptides, 96-well incubation of C. elegans L1, viability by probe touch. As to conditions: for # of nematodes Alive in all combined successful experiments / # of nematodes Dead in all combined successful experiments / Percentage % Alive / Percentage % Dead (mortality rate): three days, about 37° C. In kind it is in vivo, Caenorhabditis elegans. The procedure:
(§1) Assays were performed using 96-well plates. C. elegans nematodes at the L1 stage (refer to FIG. 1) were incubated in each of the 96 wells for three days at about 37° C. at about 0.8 mg/ml peptide concentration for each tested CED-4 peptide. Each of the selected CED-4 peptides were diluted in distilled water to 0.8 mg/ml peptide concentration. Nematodes—numbering between two nematodes and four nematodes—averaging about three nematodes were incubated in 100 μl of CED-4 peptide solution at about 0.8 mg/ml concentration in each well. After a three-day incubation period, the exposed C. elegans nematodes were checked for viability under a dissecting microscope.
The percentage of dead C. elegans from all of the successful experiments is also referred to as the “mortality rate.”
Each separate well containing nematodes was considered an independent trial experiment. A well in which all of the incubated nematodes were either clearly alive or clearly dead at the end of the incubation period was recorded as one successful experiment. A well in which some or all of the incubated nematodes could not clearly be determined as alive or dead at the end of the incubation period was recorded as one unsuccessful experiment. At a concentration of about 0.8 mg/ml, nine trial experiments were carried out for each of the twelve designed CED-4 peptides.
as §1, with “0.4” for “0.8”
Each separate well containing nematodes was considered an independent trial experiment. A well in which all of the incubated nematodes were either clearly alive or clearly dead at the end of the incubation period was recorded as one successful experiment. A well in which some or all of the incubated nematodes could not clearly be determined as alive or dead at the end of the incubation period was recorded as one unsuccessful experiment. At a concentration of about 0.4 mg/ml, eight trial experiments were carried out for each of the twelve designed CED-4 peptides.

[1] abbreviates: peptide concentration of 0.4 mg/ml.
[2] abbreviates: peptide concentration of 0.8 mg/ml.

In the case of H-VDAQTIANGISILEQRL-OH [Peptide 11], for the setting “0.4 mg/ml”, the “# of nematodes Alive in all combined successful experiments” value (shortened to “# of nematodes Alive”) is on record as 22, the “# of nematodes Dead in all combined successful experiments” value (“# of nematodes Dead” below) is 0, the “Percentage % Alive” value worked out at 100% and the “Percentage % Dead (mortality rate)” value is 0%. In addition, where the note is “0.8 mg/ml”, the “Percentage % Alive” value is recorded as 70% and the “Percentage % Dead (mortality rate)” value was 30%. Also, the “nematicide efficacy” value under setting [1] is reported as “not associated with a high number of dead nematodes”.
As for “NH3—ILLMLKSEDDLLNF-COOH (H-ILLMLKSEDDLLNF-OH) [Peptide 5, ID No. 1]”, the “nematicide efficacy” value under setting [1] was “not associated with a high number of dead nematodes” and the “nematicide efficacy” value under setting [2] was “not associated with a high number of dead nematodes”.
Consider H-RQMLDRKLLLGNVPKQMTC-OH [Peptide 3], for which, for the setting “0.4 mg/ml”, the “Percentage % Alive” value was determined as 40% and the “Percentage % Dead (mortality rate)” value came out at 60%. Under “0.8 mg/ml”, the “# of nematodes Dead” value was 20, the “Percentage % Alive” value amounted to 0% and the “Percentage % Dead (mortality rate)” value worked out at 100%.
As for H-DLLRPVVIAPQFSRQ-OH [Peptide 2], the “Percentage % Alive” value is, setting by setting: (0.4 mg/ml) 92.3%; (0.8 mg/ml) 0%. Also, the “Percentage % Dead (mortality rate)” value by setting is: (0.4 mg/ml) 7.7%; (0.8 mg/ml) 100%.
On to H-FPKFMQLHQKFY-OH [Peptide 12], for which the “Percentage % Alive” value (0.4 mg/ml) stood at 33.3%. In addition, under “0.8 mg/ml”, the “# of nematodes Alive” value was 0 and the “Percentage % Alive” value is 0%.
Turning to H-ALLSGKRMPVLTFKI-OH [Peptide 10], for the setting “0.4 mg/ml”, the “Percentage % Alive” value amounted to 30% and the “Percentage % Dead (mortality rate)” value was 70%. Also, under “0.8 mg/ml”, the “Percentage % Alive” value is 66.7% and the “Percentage % Dead (mortality rate)” value worked out at 33.3%.
H-TCYIREYHVDRVI-OH [Peptide 4]: the “Percentage % Alive” value reads like this: (0.4 mg/ml) 64.28%; (0.8 mg/ml) 50%.
As for H-QSHLADFLEDYIDFAINE-OH [Peptide 1], where the note is “0.4 mg/ml”, the “# of nematodes Alive” value stood at 14, the “# of nematodes Dead” value is reported as 0, the “Percentage % Alive” value worked out at 100% and the “Percentage % Dead (mortality rate)” value worked out at 0%. Also, under setting [1], the “nematicide efficacy” value was “not associated with a high number of dead nematodes”. Besides, the “nematicide efficacy” value under setting [2] is recorded as “not associated with a high number of dead nematodes”.
“bovine serum albumin [BSA, reference compound]”: under “0.4 mg/ml”, the “# of nematodes Alive” value turned out to be 21, the “# of nematodes Dead” value was 0 and the “Percentage % Alive” value worked out at 100%. In addition, under “0.8 mg/ml”, the “# of nematodes Alive” value is recorded as 26, the “# of nematodes Dead” value amounted to 0 and the “Percentage % Alive” value is listed as 100%.
“H-MMFFKSCEPKTFEKMAQLNNKLESR-OH [Peptide 8]”: under “0.4 mg/ml”, the “# of nematodes Alive” value is on record as 10, the “Percentage % Alive” value came out at 90.90% and the “Percentage % Dead (mortality rate)” value is reported as 9.09%. Under “0.8 mg/ml”, the “# of nematodes Alive” value was determined as 2, the “# of nematodes Dead” value is on record as 0, the “Percentage % Alive” value is 100% and the “Percentage % Dead (mortality rate)” value stood at 0%. Further, under setting [2], the “nematicide efficacy” value is “not associated with a high number of dead nematodes”.
With H-LVGVECITPYSYKSLAMALQR-OH [Peptide 9], under “0.4 mg/ml”, the “# of nematodes Alive” value came out at 18, the “# of nematodes Dead” value was found to be 0, the “Percentage % Alive” value is reported as 100% and the “Percentage % Dead (mortality rate)” value is given as 0%. Moreover, under “0.8 mg/ml”, the “# of nematodes Alive” value is on record as 8, the “# of nematodes Dead” value is on record as 0, the “Percentage % Alive” value was 100% and the “Percentage % Dead (mortality rate)” value was 0%. In addition, the “nematicide efficacy” value under setting [1] is on record as “not associated with a high number of dead nematodes”. For the same substance, the “nematicide efficacy” value under setting [2] is listed as “not associated with a high number of dead nematodes”.
For H-TSVVLKRMICNALI-OH [Peptide 6], for the setting “0.4 mg/ml”, the “# of nematodes Alive” value is 9, the “# of nematodes Dead” value worked out at 0, the “Percentage % Alive” value stood at 100% and the “Percentage % Dead (mortality rate)” value stood at 0%. For the same substance, where the note is “0.8 mg/ml”, the “# of nematodes Alive” value was found to be 9, the “# of nematodes Dead” value was 0, the “Percentage % Alive” value worked out at 100% and the “Percentage % Dead (mortality rate)” value is 0%. Besides, under setting [1], the “nematicide efficacy” value was “not associated with a high number of dead nematodes”. Besides, the “nematicide efficacy” value under setting [2] is given as “not associated with a high number of dead nematodes”.
Turning to H-DVEISNAASQTCEFIEVTSLE-OH [Peptide 7], for the setting “0.4 mg/ml”, the “# of nematodes Alive” value is reported as 19, the “# of nematodes Dead” value turned out to be 0, the “Percentage % Alive” value is recorded as 100% and the “Percentage % Dead (mortality rate)” value came out at 0%. In addition, for the setting “0.8 mg/ml”, the “# of nematodes Alive” value turned out to be 18, the “# of nematodes Dead” value came out at 0, the “Percentage % Alive” value is recorded as 100% and the “Percentage % Dead (mortality rate)” value is reported as 0%. For the same substance, the “nematicide efficacy” value under setting [1] is recorded as “not associated with a high number of dead nematodes”. Under setting [2], the “nematicide efficacy” value is “not associated with a high number of dead nematodes”.
